Test results from patent US8415469B2, “Compounds and methods for kinase modulation, and indications therefor” (Plexxikon Inc., priority 2005, dated 2013).

Experiments:
Assay type in all cases: biochemical
[1] = target: Akt3 (Homo sapiens, UniProt Q9Y243); test: AlphaScreen kinase assay, Akt3; conditions: read-out: IC50, activity toward kinase Akt3
Text: (§1) AlphaScreen assay was used to screen additional kinases. The assay is similarly dependent on the phosphorylation of a peptide substrate. In this assay, an antibody that recognizes phosphorylated substrate is bound to an acceptor bead. The peptide substrate is attached to biotin, which binds to a donor head that contains streptavidin. Thus phosphorylated substrate is bound by antibody and streptavidin, bringing the donor and acceptor heads into close proximity when kinase is not inhibited. The donor produces singlet oxygen which results in emission from the acceptor when they are in close proximity. Conversely, when kinase is inhibited, the donor and acceptor beads are not associated and the emission from the acceptor is reduced.
(§2) AlphaScreen assays were done using compounds dissolved in DMSO to a concentration of 20 mM. The compounds were diluted accordingly to the desired final concentrations in each sample well, using 1:3 serial dilution for a total of 8 concentration points.

[2] = target: MAP4K4 (Homo sapiens, UniProt O95819); test: AlphaScreen kinase assay, MAP4K4; conditions: read-out: IC50, activity toward kinase MAP4K4
[3] = target: T1, B-Raf V600E (Homo sapiens, UniProt P15056, V600E); test: AlphaScreen kinase assay, B-Raf V600E; conditions: read-out: IC50, activity toward kinase B-Raf V600E
T1 construct: P4254. pFastBacBD-CDC37 BRAF D437-K722-X, V600E; His6 with pFastBac HT leader (TEV site) (N); made in house; host or cells: Sf9 (baculovirus; chaperone CDC37 co-expressed)

[4] = target: T2, Abl (Homo sapiens, UniProt P00519); test: AlphaScreen kinase assay, Abl; conditions: read-out: activity toward kinase Abl, IC50
T2 construct: P1121. pET-SPEC BI-PTP Abl G227-V515-X; His6 (N); made in house; host or cells: E. coli (PTP1B co-expressed)
T2 sequence (P00519 with tags, fused parts or gaps): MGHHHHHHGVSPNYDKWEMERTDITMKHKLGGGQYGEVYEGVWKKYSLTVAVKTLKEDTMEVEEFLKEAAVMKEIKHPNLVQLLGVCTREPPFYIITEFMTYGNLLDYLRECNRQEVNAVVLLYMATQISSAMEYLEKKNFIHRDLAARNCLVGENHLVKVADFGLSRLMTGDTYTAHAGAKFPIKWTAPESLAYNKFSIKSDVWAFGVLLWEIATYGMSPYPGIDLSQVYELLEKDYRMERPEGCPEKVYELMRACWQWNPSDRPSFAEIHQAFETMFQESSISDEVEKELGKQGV
Text: as §1, §2

[5] = target: T3, Jnk3 (Homo sapiens, UniProt P53779); test: AlphaScreen kinase assay, Jnk3; conditions: read-out: IC50, activity toward kinase Jnk3
T3 construct: purchased Upstate Biotechnology

[6] = target: T4, Ret (Homo sapiens, UniProt P07949); test: AlphaScreen kinase assay, Ret; conditions: read-out: IC50, activity toward kinase Ret
T4 construct: P1378.pET-SF BI-PTP RET H661-R1012 HIS; made in house
T4 sequence (P07949 with tags, fused parts or gaps): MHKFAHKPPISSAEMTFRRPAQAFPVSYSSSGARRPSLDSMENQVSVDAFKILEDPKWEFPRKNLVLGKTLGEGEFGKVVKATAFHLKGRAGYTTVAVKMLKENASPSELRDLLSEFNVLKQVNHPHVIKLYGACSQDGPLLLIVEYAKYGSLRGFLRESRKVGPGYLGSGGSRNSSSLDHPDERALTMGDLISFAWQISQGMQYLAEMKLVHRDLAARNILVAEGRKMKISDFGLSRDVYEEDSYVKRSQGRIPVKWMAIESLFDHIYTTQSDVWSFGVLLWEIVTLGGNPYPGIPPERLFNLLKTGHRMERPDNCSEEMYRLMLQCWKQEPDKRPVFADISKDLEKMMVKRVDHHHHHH

[7] = target: T5, Fak (Homo sapiens, UniProt Q05397); test: AlphaScreen kinase assay, Fak; conditions: read-out: IC50, activity toward kinase Fak
T5 construct: P1358.pFastBacHtb FAK S411-Q686-X; His6 with pFastBacHTb leader (TEV site) (N); made in house; host or cells: Sf9 (baculovirus)

[8] = target: T6, c-Raf-1 (Homo sapiens, UniProt P04049); test: AlphaScreen kinase assay, c-Raf-1; conditions: read-out: IC50, activity toward kinase c-Raf-1
T6 construct: purchased Upstate Biotechnology

[9] = target: T7, Pyk2 (Homo sapiens, UniProt Q14289); test: AlphaScreen kinase assay, Pyk2; conditions: read-out: IC50, activity toward kinase Pyk2
T7 construct: purchased Upstate Biotechnology

[10] = target: T8, Jnk1 (Homo sapiens, UniProt P45983); test: AlphaScreen kinase assay, Jnk1; conditions: read-out: IC50, activity toward kinase Jnk1
T8 construct: purchased Upstate Biotechnology

[11] = target: T9, Src (Homo sapiens, UniProt P12931); test: AlphaScreen kinase assay, Src; conditions: read-out: IC50, activity toward kinase Src
T9 construct: P1144. pET-N6 BI-PTP SRC V86-L536-X; made in house

[12] = target: T10, FGFR1 (Homo sapiens, UniProt P11362, C488A/C584S); test: AlphaScreen kinase assay, FGFR1; conditions: read-out: IC50, activity toward kinase FGFR
T10 construct: P1351.pET N6 BI-PTP FGFR A458-E765-X C488A, C584S; made in house; host or cells: E. coli (PTP1B co-expressed)

[13] = target: T11, B-Raf (Homo sapiens, UniProt P15056); test: AlphaScreen kinase assay, B-Raf; conditions: read-out: IC50, activity toward kinase B-Raf
T11 construct: purchased Upstate Biotechnology

[14] = target: T12, Jnk2 (Homo sapiens, UniProt P45984); test: AlphaScreen kinase assay, Jnk2; conditions: read-out: IC50, activity toward kinase Jnk2
T12 construct: purchased Roche Protein Expression Group (Indianapolis, IN)
Summary of the method: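 Kinase activity was measured as phosphorylation of a biotinylated peptide, detected with streptavidin donor and phospho-antibody acceptor beads. Compounds, from 20 mM DMSO stocks, were tested at eight concentrations in 1:3 serial dilution.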

[15] = target: T13, Kdr (Homo sapiens, UniProt P35968); test: Z'-Lyte FRET kinase assay (Invitrogen), Kdr; conditions: read-out: IC50, activity toward kinase Kdr
T13 construct: purchased Invitrogen (assay run by Invitrogen)

[16] = target: T14, Kit (Homo sapiens, UniProt P10721); test: AlphaScreen kinase assay, Kit; conditions: read-out: IC50, activity toward kinase Kit
T14 construct: P1332.N6 BI PTP KIT M552-K948-X COD; His6 (N); made in house; host or cells: E. coli (PTP1B co-expressed)

[17] = target: T15, Fms (Homo sapiens, UniProt P07333); test: AlphaScreen kinase assay, Fms; conditions: read-out: IC50, activity toward kinase Fms
T15 construct: purchased Upstate Biotechnology

[18] = target: T16, Flt1 (Homo sapiens, UniProt P17948); test: AlphaScreen kinase assay, Flt1; conditions: read-out: IC50, activity toward kinase Flt1
T16 construct: P1826.pETN6 BI-PTP FLT1 M799-D1165-X WT; His6 (N); made in house; host or cells: E. coli (PTP1B co-expressed)
T16 sequence (P17948 with tags, fused parts or gaps): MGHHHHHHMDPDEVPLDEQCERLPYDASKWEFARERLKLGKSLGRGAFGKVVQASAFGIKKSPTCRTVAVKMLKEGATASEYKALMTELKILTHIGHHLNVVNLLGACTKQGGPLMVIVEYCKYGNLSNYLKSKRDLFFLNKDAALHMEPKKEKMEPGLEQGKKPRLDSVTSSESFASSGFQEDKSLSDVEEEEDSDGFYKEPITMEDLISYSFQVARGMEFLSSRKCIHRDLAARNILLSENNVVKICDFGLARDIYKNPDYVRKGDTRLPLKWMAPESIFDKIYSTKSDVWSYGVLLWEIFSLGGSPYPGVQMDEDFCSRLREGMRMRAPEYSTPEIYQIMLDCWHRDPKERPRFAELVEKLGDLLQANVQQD

T6 sequence (P04049 whole entry): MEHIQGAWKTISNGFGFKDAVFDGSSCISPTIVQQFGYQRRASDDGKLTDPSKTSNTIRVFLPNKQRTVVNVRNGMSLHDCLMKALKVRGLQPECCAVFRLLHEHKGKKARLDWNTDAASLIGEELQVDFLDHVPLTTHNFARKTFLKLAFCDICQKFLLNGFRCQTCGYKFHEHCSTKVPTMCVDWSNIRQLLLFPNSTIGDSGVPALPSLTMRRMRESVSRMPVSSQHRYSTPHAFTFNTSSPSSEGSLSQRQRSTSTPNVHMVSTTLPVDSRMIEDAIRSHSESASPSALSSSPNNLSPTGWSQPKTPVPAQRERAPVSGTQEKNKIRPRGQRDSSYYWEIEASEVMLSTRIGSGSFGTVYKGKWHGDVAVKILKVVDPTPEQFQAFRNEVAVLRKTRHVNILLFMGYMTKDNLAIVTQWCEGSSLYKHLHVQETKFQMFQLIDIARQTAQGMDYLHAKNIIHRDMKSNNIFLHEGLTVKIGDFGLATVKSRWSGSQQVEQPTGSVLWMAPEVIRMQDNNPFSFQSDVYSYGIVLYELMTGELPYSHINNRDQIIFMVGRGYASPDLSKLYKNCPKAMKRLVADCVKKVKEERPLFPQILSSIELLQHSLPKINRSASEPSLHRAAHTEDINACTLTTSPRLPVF
T9 sequence (P12931 with tags, fused parts or gaps): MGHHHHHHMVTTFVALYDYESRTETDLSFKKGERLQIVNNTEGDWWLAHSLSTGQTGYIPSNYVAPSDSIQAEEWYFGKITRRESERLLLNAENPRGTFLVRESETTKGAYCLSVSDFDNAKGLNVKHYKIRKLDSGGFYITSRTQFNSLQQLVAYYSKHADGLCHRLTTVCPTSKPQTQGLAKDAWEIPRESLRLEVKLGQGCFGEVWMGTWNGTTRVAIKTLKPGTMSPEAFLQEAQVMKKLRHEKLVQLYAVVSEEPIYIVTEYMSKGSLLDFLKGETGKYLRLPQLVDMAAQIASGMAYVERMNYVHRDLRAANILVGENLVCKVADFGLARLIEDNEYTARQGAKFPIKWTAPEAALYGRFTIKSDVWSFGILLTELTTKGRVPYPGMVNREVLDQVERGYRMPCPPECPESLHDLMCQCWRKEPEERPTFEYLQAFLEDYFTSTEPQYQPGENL
T1 sequence (P15056 with tags, fused parts or gaps V600E): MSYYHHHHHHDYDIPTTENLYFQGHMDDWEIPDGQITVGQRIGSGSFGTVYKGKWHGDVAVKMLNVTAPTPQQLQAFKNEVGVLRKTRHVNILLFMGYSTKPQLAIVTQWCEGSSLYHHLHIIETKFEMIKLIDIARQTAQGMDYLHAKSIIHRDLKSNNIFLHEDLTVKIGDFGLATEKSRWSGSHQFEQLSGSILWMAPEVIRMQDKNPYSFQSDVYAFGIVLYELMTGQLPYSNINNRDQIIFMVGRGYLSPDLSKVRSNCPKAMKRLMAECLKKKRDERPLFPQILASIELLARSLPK
Akt3, sequence (Q9Y243 whole entry): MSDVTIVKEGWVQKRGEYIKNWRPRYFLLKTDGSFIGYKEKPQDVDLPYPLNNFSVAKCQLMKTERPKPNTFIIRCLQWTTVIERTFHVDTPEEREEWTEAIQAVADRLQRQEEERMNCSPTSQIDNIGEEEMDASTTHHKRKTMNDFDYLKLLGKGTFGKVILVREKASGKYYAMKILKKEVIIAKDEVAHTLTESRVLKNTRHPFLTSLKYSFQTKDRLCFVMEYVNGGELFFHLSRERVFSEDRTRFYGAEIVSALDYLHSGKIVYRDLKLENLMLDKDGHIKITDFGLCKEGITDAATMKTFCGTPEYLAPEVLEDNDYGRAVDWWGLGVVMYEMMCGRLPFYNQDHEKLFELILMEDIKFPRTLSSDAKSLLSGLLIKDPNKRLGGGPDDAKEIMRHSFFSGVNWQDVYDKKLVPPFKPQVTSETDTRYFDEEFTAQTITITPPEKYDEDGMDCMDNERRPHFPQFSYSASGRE
T3 sequence (P53779 whole entry): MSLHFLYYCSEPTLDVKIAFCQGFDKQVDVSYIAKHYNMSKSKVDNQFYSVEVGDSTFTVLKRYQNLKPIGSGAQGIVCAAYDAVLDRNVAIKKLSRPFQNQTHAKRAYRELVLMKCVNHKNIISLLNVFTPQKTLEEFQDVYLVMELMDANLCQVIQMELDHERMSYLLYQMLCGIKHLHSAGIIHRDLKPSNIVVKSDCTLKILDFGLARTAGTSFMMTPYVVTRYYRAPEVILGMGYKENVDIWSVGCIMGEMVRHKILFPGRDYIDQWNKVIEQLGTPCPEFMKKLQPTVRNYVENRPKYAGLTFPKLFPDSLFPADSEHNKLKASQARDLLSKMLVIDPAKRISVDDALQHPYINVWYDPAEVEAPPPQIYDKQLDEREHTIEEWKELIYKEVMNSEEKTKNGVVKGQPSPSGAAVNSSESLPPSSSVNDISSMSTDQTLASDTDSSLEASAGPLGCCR
T7 sequence (Q14289 whole entry): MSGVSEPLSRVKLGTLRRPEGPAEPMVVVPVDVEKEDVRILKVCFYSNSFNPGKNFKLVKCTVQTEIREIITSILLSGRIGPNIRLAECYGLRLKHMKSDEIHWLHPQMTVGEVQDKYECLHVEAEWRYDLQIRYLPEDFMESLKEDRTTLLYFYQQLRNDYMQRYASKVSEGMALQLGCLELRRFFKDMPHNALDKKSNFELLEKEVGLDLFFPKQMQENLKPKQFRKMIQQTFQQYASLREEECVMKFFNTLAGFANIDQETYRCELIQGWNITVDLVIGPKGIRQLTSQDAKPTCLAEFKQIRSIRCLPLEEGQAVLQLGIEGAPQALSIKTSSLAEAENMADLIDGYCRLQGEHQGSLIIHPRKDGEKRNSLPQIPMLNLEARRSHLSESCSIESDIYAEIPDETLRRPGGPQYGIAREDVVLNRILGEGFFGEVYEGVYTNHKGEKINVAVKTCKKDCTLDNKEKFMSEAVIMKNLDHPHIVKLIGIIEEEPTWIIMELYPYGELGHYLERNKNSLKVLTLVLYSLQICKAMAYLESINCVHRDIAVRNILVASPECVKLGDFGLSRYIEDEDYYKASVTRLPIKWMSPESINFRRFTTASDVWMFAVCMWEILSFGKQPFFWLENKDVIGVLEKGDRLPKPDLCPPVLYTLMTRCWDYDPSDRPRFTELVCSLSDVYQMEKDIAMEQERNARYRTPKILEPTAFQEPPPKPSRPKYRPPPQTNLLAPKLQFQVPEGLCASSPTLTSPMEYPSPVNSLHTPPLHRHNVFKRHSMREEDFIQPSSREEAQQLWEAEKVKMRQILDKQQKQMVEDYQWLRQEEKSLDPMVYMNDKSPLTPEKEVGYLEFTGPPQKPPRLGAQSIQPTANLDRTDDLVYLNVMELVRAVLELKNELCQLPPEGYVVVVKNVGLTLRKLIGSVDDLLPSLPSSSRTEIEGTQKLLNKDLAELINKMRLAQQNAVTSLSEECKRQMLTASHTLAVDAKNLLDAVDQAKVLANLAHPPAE
T15 sequence (P07333 20-972): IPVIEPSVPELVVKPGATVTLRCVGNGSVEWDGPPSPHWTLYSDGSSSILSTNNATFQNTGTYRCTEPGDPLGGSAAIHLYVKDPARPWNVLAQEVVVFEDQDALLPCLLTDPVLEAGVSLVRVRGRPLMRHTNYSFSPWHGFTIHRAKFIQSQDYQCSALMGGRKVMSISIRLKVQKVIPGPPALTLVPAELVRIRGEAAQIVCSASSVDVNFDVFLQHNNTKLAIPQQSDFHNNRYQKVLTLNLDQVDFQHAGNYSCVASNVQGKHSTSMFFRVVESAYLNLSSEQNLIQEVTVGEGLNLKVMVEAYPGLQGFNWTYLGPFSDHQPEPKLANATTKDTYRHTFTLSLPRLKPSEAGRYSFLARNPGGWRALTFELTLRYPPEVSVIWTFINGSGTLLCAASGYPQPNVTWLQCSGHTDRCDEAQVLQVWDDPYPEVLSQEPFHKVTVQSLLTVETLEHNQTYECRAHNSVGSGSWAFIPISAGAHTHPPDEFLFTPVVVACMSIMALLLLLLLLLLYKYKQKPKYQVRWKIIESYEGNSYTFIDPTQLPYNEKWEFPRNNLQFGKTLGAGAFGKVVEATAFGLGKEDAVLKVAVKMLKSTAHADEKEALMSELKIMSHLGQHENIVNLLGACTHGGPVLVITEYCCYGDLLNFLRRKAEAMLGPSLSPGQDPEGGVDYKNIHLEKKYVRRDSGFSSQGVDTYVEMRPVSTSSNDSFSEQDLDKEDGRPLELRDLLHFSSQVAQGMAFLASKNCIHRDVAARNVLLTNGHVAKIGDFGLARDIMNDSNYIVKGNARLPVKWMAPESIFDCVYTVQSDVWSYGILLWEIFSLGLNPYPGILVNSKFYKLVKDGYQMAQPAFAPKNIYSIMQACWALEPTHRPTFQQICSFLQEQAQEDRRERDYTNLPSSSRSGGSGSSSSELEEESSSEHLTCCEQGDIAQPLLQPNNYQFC
T10 sequence (P11362 458-765 C488A/C584S): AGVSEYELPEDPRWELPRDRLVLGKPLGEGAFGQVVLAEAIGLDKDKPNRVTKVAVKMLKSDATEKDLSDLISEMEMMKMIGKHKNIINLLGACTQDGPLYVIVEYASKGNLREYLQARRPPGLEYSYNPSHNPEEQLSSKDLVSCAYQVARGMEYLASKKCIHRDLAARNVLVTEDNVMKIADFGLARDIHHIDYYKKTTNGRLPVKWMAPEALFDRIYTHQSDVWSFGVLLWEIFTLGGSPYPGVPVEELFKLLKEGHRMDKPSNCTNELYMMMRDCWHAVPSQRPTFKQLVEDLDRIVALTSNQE
T5 sequence (Q05397 411-686): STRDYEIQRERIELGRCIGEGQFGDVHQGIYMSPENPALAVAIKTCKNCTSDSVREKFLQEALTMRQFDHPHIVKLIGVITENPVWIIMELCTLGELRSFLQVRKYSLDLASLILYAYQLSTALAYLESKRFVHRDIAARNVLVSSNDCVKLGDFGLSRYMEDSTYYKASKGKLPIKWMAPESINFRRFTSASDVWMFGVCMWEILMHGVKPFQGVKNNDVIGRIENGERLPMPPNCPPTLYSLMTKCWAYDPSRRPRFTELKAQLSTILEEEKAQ

IC50 [1] [µM] | IC50 [3] [µM] | IC50 [4] [µM] | IC50 [5] [µM] | IC50 [6] [µM] | IC50 [9] [µM] | IC50 [11] [µM] | IC50 [12] [µM] | IC50 [13] [µM] | IC50 [16] [µM] | Compound | also measured
≤ 10 | ≤ 10 |  |  |  |  |  |  |  |  | COc1ccc(-c2c[nH]c3ncccc23)cc1OC1CCCC1 [Compound P-0573] | IC50 [2]: ≤ 10 µM
 |  | ≤ 10 |  |  |  |  |  |  |  | Cc1ccc(S(=O)(=O)NCc2c[nH]c3ncc(-c4ccsc4)cc23)cc1 [Compound P-1127] | 
 |  | ≤ 10 | ≤ 10 | ≤ 10 |  |  |  |  |  | Cc1ccccc1C(=O)c1c[nH]c2ncc(-c3ccc(C(N)=O)cc3)cc12 [Compound P-1011] | 
 |  | ≤ 10 |  | ≤ 10 |  |  |  |  |  | Cc1cc(C(=O)c2c[nH]c3ncc(-c4cccc(N)c4)cc23)n(C)n1 [Compound P-1115] | 
≤ 10 | ≤ 10 |  |  |  | ≤ 10 | ≤ 10 | ≤ 10 | ≤ 10 |  | CCCS(=O)(=O)Nc1ccc(F)c(Cc2c[nH]c3ncc(C(C)C)cc23)c1F [Compound P-1288] | IC50 [7]: ≤ 10 µM; IC50 [8]: ≤ 10 µM; IC50 [10]: ≤ 10 µM
 |  | ≤ 10 |  |  | ≤ 10 |  |  |  |  | c1csc(Sc2c[nH]c3ncccc23)c1 [Compound P-0529] | 
 | ≤ 10 | ≤ 10 |  | ≤ 10 |  | ≤ 10 | ≤ 10 |  | ≤ 10 | Cc1ccccc1C(=O)c1c[nH]c2ncc(-c3cccnc3)cc12 [Compound P-0623] | IC50 [14]: ≤ 10 µM; IC50 [15]: ≤ 10 µM
 |  | ≤ 10 |  | ≤ 10 | ≤ 10 | ≤ 10 | ≤ 10 |  | ≤ 10 | COc1cccc(Cc2c[nH]c3nccc(Br)c23)c1 [Compound P-0501] | IC50 [7]: ≤ 10 µM; IC50 [17]: ≤ 10 µM
≤ 10 | ≤ 10 |  |  |  | ≤ 10 | ≤ 10 |  | ≤ 10 | ≤ 10 | CCN(CC)c1ccc(Nc2ccnc3[nH]ccc23)cc1 [Compound P-0866] | IC50 [8]: ≤ 10 µM; IC50 [18]: ≤ 10 µM
 | ≤ 10 | ≤ 10 |  | ≤ 10 |  |  |  | ≤ 10 | ≤ 10 | O=C(c1cc(O)ccc1F)c1c[nH]c2nccc(Cl)c12 [Compound P-0794] | IC50 [8]: ≤ 10 µM
 |  | ≤ 10 | ≤ 10 |  | ≤ 10 | ≤ 10 | ≤ 10 |  | ≤ 10 | CCOc1cccc(Cc2c[nH]c3ncc(-c4ccsc4)cc23)c1 [Compound P-0562] | IC50 [15]: ≤ 10 µM
 | ≤ 10 | ≤ 10 | ≤ 10 | ≤ 10 |  |  | ≤ 10 |  | ≤ 10 | Cc1ccc(F)cc1C(=O)c1c[nH]c2ncc(-c3ccsc3)cc12 [Compound P-0671] | 
≤ 10 | ≤ 10 |  | ≤ 10 |  | ≤ 10 | ≤ 10 |  |  | ≤ 10 | CCCOc1ccc(Nc2cnc3[nH]ccc3c2)cc1 [Compound P-1010] | IC50 [18]: ≤ 10 µM
 | ≤ 10 | ≤ 10 | ≤ 10 | ≤ 10 |  |  |  | ≤ 10 | ≤ 10 | O=C(c1cc(O)ccc1F)c1c[nH]c2ncc(-c3ccsc3)cc12 [Compound P-0604] | IC50 [8]: ≤ 10 µM
≤ 10 | ≤ 10 |  |  |  |  | ≤ 10 | ≤ 10 | ≤ 10 | ≤ 10 | COc1ccc(S(=O)(=O)Nc2ccc(F)c(C(=O)c3c[nH]c4ncccc34)c2F)cc1 [Compound P-0958, N-[2,4-Difluoro-3-(1H-pyrrolo[2,3-b]pyridine-3-carbonyl)-phenyl]-4-methoxy-benzenesulfonamide] | IC50 [8]: ≤ 10 µM; IC50 [2]: ≤ 10 µM; IC50 [10]: ≤ 10 µM; IC50 [17]: ≤ 10 µM; IC50 [18]: ≤ 10 µM
≤ 10 | ≤ 10 |  | ≤ 10 |  | ≤ 10 |  | ≤ 10 |  | ≤ 10 | CCOc1ccc(Nc2cnc3[nH]ccc3c2)cc1 [Compound P-1018] | IC50 [18]: ≤ 10 µM
 | ≤ 10 | ≤ 10 |  | ≤ 10 |  |  | ≤ 10 | ≤ 10 | ≤ 10 | Cc1ccc(F)cc1C(=O)c1c[nH]c2ncc(-c3cccnc3)cc12 [Compound P-0693] | 
 | ≤ 10 | ≤ 10 | ≤ 10 | ≤ 10 |  | ≤ 10 | ≤ 10 |  | ≤ 10 | Cc1ccccc1C(=O)c1c[nH]c2ncc(-c3ccsc3)cc12 [Compound P-0244] | IC50 [10]: ≤ 10 µM; IC50 [17]: ≤ 10 µM; IC50 [18]: ≤ 10 µM
